This is an account of results in US20110015371A1 (Vertex Pharmaceuticals Incorporated, priority 1994, published 2011).

pIC50, pKi: −log10 of the molar value.

Data set [1] deals with Human Peripheral Blood Mononuclear Cells (PBMC) or Enriched Adherent Mononuclear Cells. Put plainly: Cell assay: IL-1β assay with human PBMC or enriched adherent mononuclear cells. The data set is classed as cell-based. The following applies: Homo sapiens, PBMC, LPS-stimulated cells, mature IL-1β in supernatant by ELISA. Summed up: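 Human PBMC (suspension at 6×10^6 cells/ml) or adherent monocytes enriched by 1 h plating (2.5−3.0×10^5 cells/well) were stimulated with 5 ng/ml LPS (final) plus compound (5-6 dilutions, 0.1% DMSO final) for 16-18 hr at 37° C. Mature IL-1β in supernatants quantified by ELISA; duplicate cultures, duplicate ELISAs.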
For orientation: ELISA stands for enzyme-linked immunosorbent assay.

A further data set has as its target T1, ICE (Homo sapiens, UniProt P29466).
T1 sequence (P29466 120-297 limits assumed): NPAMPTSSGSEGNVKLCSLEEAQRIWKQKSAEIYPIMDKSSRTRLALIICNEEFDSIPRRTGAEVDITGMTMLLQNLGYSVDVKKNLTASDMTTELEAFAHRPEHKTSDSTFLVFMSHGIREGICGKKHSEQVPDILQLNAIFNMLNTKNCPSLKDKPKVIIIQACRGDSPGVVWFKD
T1 sequence (P29466 317-404 limits assumed): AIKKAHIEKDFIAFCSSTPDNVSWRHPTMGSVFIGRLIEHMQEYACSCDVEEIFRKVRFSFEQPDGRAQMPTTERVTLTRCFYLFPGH
Put plainly: Enzyme assay with UV-visible substrate (Succinyl-Tyr-Val-Ala-Asp-pNitroanilide). It counts as biochemical. An outline of the steps: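 Colorimetric caspase-1 assay: rate of chromophore release from the pNA-tetrapeptide substrate monitored at 37° C for 20 minutes at 405-603 nm, after 15 min room-temperature enzyme–inhibitor preincubation. Ki values and competitive/uncompetitive/noncompetitive mode obtained by kinetic-equation fitting of rates across inhibitor concentrations.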

In turn, `COc1ccc(CCCc2c[nH]c(C(=O)N3CCC[C@H]3C(=O)N[C@H](C=O)CC(=O)O)n2)cc1` [Compound 21e, (3S)3-{N-[4-[3-(4-Methoxyphenyl)propyl]imidazole-2-carbonyl]-L-prolinyl}amino-4-oxobutanoic acid] yielded a melting point of 101 to 105 °C. The pIC50 in data set [1] (Example 4 table) is 5.54.

Molecule `O=C[C@H](CC(=O)O)NC(=O)[C@@H]1CCCN1C(=O)c1nc(CCCc2ccc(O)cc2)c[nH]1` [Compound 21f, (3S)3-{N-[4-[3-(4-Hydroxyphenyl)propyl]imidazole-2-carbonyl]-L-prolinyl}amino-4-oxobutanoic acid] displayed a melting point of 114 to 118 °C. In data set [1] (Example 4 table), this molecule showed a pIC50 of 5.54.

`C[C@H](NC(=O)c1cnc(CCc2ccc(C(F)(F)F)cc2)[nH]1)C(=O)N[C@H](C=O)CC(=O)O` [Compound 33b, (3S)3-{N-[2-(2-[4-Trifluoromethylphenyl]ethyl)imidazole-4-carbonyl]-L-alaninyl}-amino-4-oxobutanoic acid] yielded a melting point of 120 to 124 °C. This molecule had a negative logarithm of the Ki (pKi) at ICE (Example 2 table) of 5.00. The molecule also gave a negative logarithm of the Ki (pKi) at ICE (Example 4 table) of 5.00. This molecule gave a pIC50 in data set [1] (Example 2 table) of less than 4.52. This molecule gave a pIC50 in data set [1] (Example 4 table) of less than 4.52.

Turning to `C[C@H](NC(=O)c1ccc(Cc2ccccc2)[nH]1)C(=O)N[C@H](C=O)CC(=O)O` [Compound 36b, (3S)3-[N-(5-Benzylpyrrole-2-carbonyl)-L-alaninyl]amino-4-oxobutanoic acid], the melting point lay in the range of 109 to 112 °C. In addition, in data set [1] (Example 4 table), the pIC50 is 4.77.

The molecule `O=C[C@H](CC(=O)O)NC(=O)[C@@H]1CCCN2CCC[C@H](NC(=O)CCc3ccccc3)C(=O)N12` [Compound 47b, [3S,(1S,9S)]3-(Octahydro-10-oxo-9-(3-phenylpropionylamino)-6H-pyridazino-[1,2-a][1,2]diazepine-1-carboxamido)-4-oxobutanoic acid] registered a melting point of 87 to 90 °C. Further, the pKi at ICE (Example 4 table) was 7.57. This molecule also had a pIC50 in data set [1] (Example 4 table) of 5.74.

As to `CCCCc1ccc(NC(=O)CCc2ccccc2)c(=O)n1CC(=O)N[C@H](C=O)CC(=O)O` [Compound 54d, 3(S)3-(6-Butyl-1,2-dihydro-2-oxo-3-(3-phenylpropionyl)amino-1-pyridyl)acetylamino-4-oxobutanoic acid], the melting point was 120 to 125 °C. The molecule also had a pKi at ICE (Example 4 table) of 6.00.

Turning to `Cc1ccc(NC(=O)CCc2ccccc2)c(=O)n1CC(=O)N[C@H](C=O)CC(=O)O` [Compound 54e, 3(S)3-(1,2-Dihydro-6-methyl-2-oxo-3-(3-phenylpropionyl)amino-1-pyridyl)acetylamino-4-oxobutanoic acid], the melting point was 129 to 138 °C. This molecule gave a negative-log Ki (pKi) at ICE (Example 4 table) of 5.46.

In the case of `O=C[C@H](CC(=O)O)NC(=O)Cn1cccc(NC(=O)CCc2ccccc2)c1=O` [Compound 54g, 3(S)3-(1,2-Dihydro-2-oxo-3-(3-phenylpropionyl)amino-1-pyridyl)acetylamino-4-oxobutanoic acid], the melting point was 140 to 145 °C (dec.). The molecule also had a negative-log Ki (pKi) at ICE (Example 2 table) of 5.32. The pKi at ICE (Example 4 table) is 5.32. The pIC50 in data set [1] (Example 4 table) was less than 4.70.

`O=C[C@H](CC(=O)O)NC(=O)Cn1c(Cc2ccccc2)ccc(NS(=O)(=O)CCc2ccccc2)c1=O` [Compound 54j, 3(S)3-(6-Benzyl-1,2-dihydro-2-oxo-3-(2-phenylethane-sulphonyl)amino-1-pydridyl)acetylamino-4-oxobutanoic acid] gave a melting point of 102 to 105 °C. This molecule showed a pKi on ICE (Example 4 table) of 6.55. The molecule further showed a pIC50 in data set [1] (Example 6 table) of 5.00.

For the molecule `O=C(O)CC(NC(=O)Cn1c(Cc2ccccc2)ccc(NC(=O)CCc2ccccc2)c1=O)C(=O)COC(=O)c1c(Cl)cccc1Cl` (stereo not drawn) [Compound 57b, N-2-(6-Benzyl-1,2-dihydro-2-oxo-3-(3-phenylpropionyl)amino-1-pyridyl)acetyl-3-amino-5-(2,6-dichloro-benzoyloxy)-4-oxo-pentanoic acid], the melting point is 116 to 120 °C (dec.). The molecule further had a pIC50 in data set [1] (Example 6 table) of 5.66.

What is called pIC50 is the negative decadic logarithm of the IC50, by convention in mol/L. Higher therefore signals a small IC50. What is called melting point is the temperature, or range, at which the solid turns liquid. Broadly, the pKi is −log10 of the Ki, conventionally taken in molar units. Lower therefore signals a large Ki.
